Reference: patent US20080175880A1, “Pyridoxal-5-Phosphate And Stent For The Treatment And Prevention Of Atherosclerosis And Restenosis” (MEIDCURE INTERNATIONAL INC., priority 2004, published 2008)

How the values were obtained:
HEK 293 P2X7 cells = experiment: ATP/BzATP induced apoptosis, Cell Death Detection ELISA; assay type: cell-based, human; settings: for induction of cell apoptosis: P2X7 expressing cells
Protocol: Cell Lines—HEK 293 cell line (human), is stabily transfected with the P2X7 receptor [9] to produce HEK 293 P2X7 cells.
(§1) Apoptosis—HEK-293 P2X7 (human) cells are treated with ATP and/or BzATP to induce apoptosis (Wen et al., 2003). The level of apoptosis is determined using a Cell Death Detection ELISA, which is based on DNA laddering. Various doses of P5P are added to the cells to determine its ability to inhibit ATP induced apoptosis. OxATP (Murgia et al., 1993), PPADS (Chessell I P et al., 1998) and/or KN-62 (Humphreys B D et al., 1998) are used as positive controls.

LPS primed THP-1 cells = experiment: ATP induced IL-1β secretion, ELISA; assay type: cell-based; settings: for inhibition of IL-1β secretion: LPS primed THP-1 cells treated with ATP
Protocol: LPS primed THP-1 cells are treated with ATP to induced IL-1β secretion (Grahames C B A et-al (1999) Br J Pharm 127:1915-1921). IL-1β secretion levels are determined by ELISA. Various doses of P5P are added to the cells to determine its ability to Inhibit the ATP induced IL-1β secretion. OxATP (Grahames et al., 1999), PPADS (Grahames et al., 1999), and/or KN-62 (Grahames et al., 1999) are used as positive controls.

wild type HEK 293 cells = experiment: ATP/BzATP induced apoptosis in wild type control cells; assay type: cell-based, human; settings: wild type cells without P2X7
Protocol: as §1
Control—All the experiments are carried out in wild type HEK 293 cells as a control.

[1] = test system: hepatic cytochrome enzymes; experiment: Inhibition of hepatic cytochrome enzymes; assay type: in vitro ADME
[2] = test system: freshly isolated adult rat cardiomyocytes; settings: previous finding of the inventors (refs 89, 93); cited from earlier work
[3] = Double-blind placebo-controlled trial in PCI (angioplasty) patients; assay type: in vivo, human
Protocol: Study Design and Population—The study is a multicenter, double-blind, placebo-controlled, randomized trial. The protocol is approved by institutional review boards prior to commencement. Patients referred for elective percutaneous coronary interventional (PCI) are evaluated 14 days before their scheduled procedures. Eligible patients are asked to provide written informed consent and undergo medical history, physical examination, electrocardiography, hematology, and clinical biochemistry. Patients are eligible if they are scheduled to undergo PCI with or without stenting on one native coronary artery and have one de novo target lesion with luminal narrowing 50%. Subjects who have severe liver disease or serum creatinine 200 μmol/L; myocardial infarction within the past 7 days; left main stenosis >50%; ejection fraction <30%; have had PCI for another lesion in the preceding 6 months; are being treated for a restenotic lesion; or have scheduled atherectomy, brachytherapy, or PCI of a bypass graft before randomization are excluded. A total of 120 patients are enrolled, with 60 randomized to receive P5P and 60 to receive placebo.
The primary endpoint is clinical restenosis requiring target lesion revascularization at six months. The secondary end points are major adverse cardiac events (MACE) including death, myocardial infarction and revascularization.
Randomization and Drug Regimen—Patients are randomly assigned to receive P5P (provided by CanAm Bioresearch Inc.) 750 mg once day or placebo beginning 14 days before scheduled PCI. P5P or matched placebo is administered as 3 tablets given once daily. All patients will also receive an extra dose of P5P or matched placebos on the evening before PCI, according to random treatment assignment. After PCI, all patients are maintained on their assigned study regimen for 4 additional weeks.
PCI and Follow-Up Evaluation—PCI with or without stent placement and post-PCI management will be performed according to current clinical practice. ECGs are obtained before PCI, immediately thereafter, and the morning after PCI. Creatine kinase, creatine kinase-MB fraction, and troponin I are measured on the evening after PCI and the following morning. Patients are discharged after PCI with 4 weeks of the study medication. Aspirin 325 mg/d is given from the time of recruitment and for the entire study duration. All-patients treated with stents also receive clopidogrel 75 mg/d for 30 days after PCI. Patients will return at 1 Month, 3 months and 6 months for clinical evaluation and drug accountability. Patients are assessed for ischemic symptoms and adverse events, whether or not they were related to the study medication or PCI procedure. Blood chemistry values assessed at baseline are measured again at PCI discharge and at follow-up visits. Patients are readmitted for follow-up catheterization and IVUS 5 to 7 months after PCI. […]
IVUS Examinations and Measurements—IVUS examinations are performed with 30-MHz, 3.2 F ultrasound catheters (Tardif et al., Canadian Antioxidant Restenosis Trial (CART-1) Investigators. Effects of AGI-1067 and probucol after percutaneous coronary interventions. Circulation. 2003; 107(4):552-8). IVUS studies are recorded before, PCI whenever possible and are always performed after PCI (after final balloon inflation) and at follow-up (before any subsequent intervention). […] The preintervention, post-PCI, and follow-up studies are analyzed side by side. […]

human platelet = settings: cited from earlier work
[4] = test system: isolated perfused rat hearts; settings: previous finding of the inventors (refs 89, 90); cited from earlier work
[5] = Rabbit aortic balloon-injury model; assay type: in vivo; settings: 10 mg/kg daily by gavage
Protocol: Rabbit Aortic Balloon-Injury Model—Forty male New Zealand White rabbits (2.5-3.0 kg) are used. Rabbits are fed regular rabbit chow (control, 20 rabbits) or a 1% cholesterol diet (treated, 20 rabbits) for 8 weeks. Half of each group receives 10 mg/kg P5P (provided by CanAm Bioresearch Inc.) daily by gavage, with the other half receiving saline by gavage. After 4 weeks, a 3F Fogarty embolectomy catheter (Baxter) is inserted into the right femoral artery of each rabbit, advanced 25 cm proximally, and then withdrawn to the origin with the balloon inflated to 0.2 mL saline, a step repeated twice (Lau et al., Probucol promotes functional reendothelialization in balloon-injured rabbit aortas. Circulation 2003; 107(15):2031-6). At 8 weeks, the right and left femoral arteries are harvested from each animal (left femoral arteries serve as uninjured controls). Segments for histology are pressure-perfused with formalin, stored in. 70% (vol/vol) ethanol, and then embedded in paraffin.
Histology—One 5 μm thick cross-section is taken from each of 6 segments of the femoral aorta and stained with hematoxylin and eosin. Morphometric analysis of the 6 arterial cross-sections per animal is performed using Imagespace software (Molecular Dynamics). The intimal and medial areas of each arterial cross-section specimen is measured, and the average intimal/medial area ratio is determined for each group.
Inflammatory Markers, Lipid Profile, and Homocysteine Levels—At the beginning and end of the study, and every 2 weeks throughout, blood samples are collected through a catheter inserted in the ear artery of conscious rabbits. Plasma interleukin-6 (IL-6) levels are measured with quantitative sandwich enzyme immunoassay employing commercial kits for rats (R&D Systems) (Oubina et al., Synergistic effect of angiotensin-converting enzyme (ACE) and 3-hydroxy-3-methylglutaryl-CoA (HMG-CoA) reductase inhibition on inflammatory markers in atherosclerotic rabbits. Clin Sci (Lond). 2003; 105(6):655-62). CRP plasma levels are measured with an immunoassay kit for rabbits (Alpco Diagnostics). Plasma cholesterol levels are measured using colorimetric reactions employing commercial kits (Roche Diagnostics). Homocysteine levels are determined by high performance liquid chromatography, as previously described (Zhloba and Blashko, Liquid chromatographic determination of total homocysteine in blood plasma with photometric detection. J Chromatogr B Analyt Technol Biomed Life Sci. 2004; 800(1-2):275-80).
Evaluation of Endothelial Function by Ultrasound—Ultrasound evaluation of endothelial function of the femoral aorta is performed at the beginning and end of the study, and every 2 weeks throughout (Drolet et al., Early endothelial dysfunction in cholesterol-fed rabbits: a non-invasive in vivo ultrasound study. Cardiovasc Ultrasound. 2004; 2(1):10). Rabbits are sedated using midazolam (0.5 mg/kg), butorphanol (0.5 mg/kg) and ketamine (30 mg/kg) IM. Marginal ear vein and artery are cannulated for drug infusions and arterial blood pressure monitoring, respectively. Heart rate is monitored continuously throughout the procedure. […]
Once the imaging of the aorta is optimal, the animals receive the following drug perfusions I.V. sequentially for 2 minutes each: 1) saline at 1 ml/min; 2) acetylcholine (Ach) at 0.05 μg/ml/min and Ach at 0.5 μg/ml/min. […] Images of the femoral aorta are recorded continuously through the entire procedure on standard S-VHS videotape for off-line analysis. […]

[6] = Tolerability and toxicity in animal and human studies; assay type: in vivo
[7] = cited from earlier work
[8] = 750 mg once a day from 14 days before to 4 weeks after PCI

Compound: Nc1ncnc2c1ncn2[C@@H]1O[C@H](COP(=O)(O)OP(=O)(O)OP(=O)(O)O)[C@@H](O)[C@H]1O [ATP, adenosine triphosphate]
- induction of cell apoptosis (HEK 293 P2X7 cells): induce
- induction of IL-1β secretion (LPS primed THP-1 cells; LPS primed THP-1 cells): induces
- induction of cell apoptosis (wild type HEK 293 cells): do not induce

Compound: CN([C@@H](Cc1ccc(OS(=O)(=O)c2cccc3cnccc23)cc1)C(=O)N1CCN(c2ccccc2)CC1)S(=O)(=O)c1cccc2cnccc12 [KN-62]
- inhibition of IL-1β secretion (LPS primed THP-1 cells): inhibits

Compound: Nc1ncnc2c1ncn2[C@@H](C=O)O[C@@H](C=O)COP(=O)(O)OP(=O)(O)OP(=O)(O)O [OxATP]
- inhibition of IL-1β secretion (LPS primed THP-1 cells): inhibits

Compound: Cc1ncc(COP(=O)(O)O)c(C=O)c1O [P5P, Pyridoxal-5′-phosphate]
- inhibition of hepatic cytochrome enzymes [1]: does not inhibit
- inhibition of ATP mediated cell apoptosis (HEK 293 P2X7 cells; P2X7 expressing HEK 293 cells, vs untreated cells): inhibits
- inhibition of IL-1β secretion (LPS primed THP-1 cells): inhibits
- inhibition of ATP induced calcium influx [2]: inhibits
- CRP levels [3, 8]: lowered
- homocysteine levels [3, 8]: lowered
- incidence of restenosis following PCI [3, 8]: decreased incidence
- lipid profile [3, 8]: improved
- endothelial function ([3]; 750 mg once a day, brachial artery ultrasound): improved
- inhibition of prostaglandin E1 and theophylline-induced platelet aggregation (human platelet; in vitro (ref 123)): inhibit
- inhibition of platelet aggregation and 14C-5HT release (human platelet; induced by ADP, thrombin, adrenaline, platelet activating factor, arachidonic acid, in vitro (ref 122)): inhibit
- inhibition of thromboxane B2 generation (human platelet; induced by all of these agents except arachidonic acid (ref 122)): inhibited
- inhibition of positive inotropic effects of ATP [4]: inhibits
- CRP levels ([5]; 8 weeks): lowered
- homocysteine levels ([5]; 8 weeks): lowered
- lipid profile ([5]; 8 weeks): improved
- incidence of restenosis ([5]; balloon injury): decreased incidence
- endothelial function ([5]; ultrasound): improved
- tolerability [6]: easily tolerated
- toxicity [6]: low toxicity

Compound: Cc1nc(N=Nc2ccc(S(=O)(=O)O)cc2S(=O)(=O)O)c(COP(=O)(O)O)c(C=O)c1O [PPADS]
- inhibition of IL-1β secretion (LPS primed THP-1 cells): inhibits

Compound: Cc1ncc(CO)c(CO)c1O [pyridoxine]
- plasma antithrombin III (AT III) activity ([7]; atherosclerotic patients (ref 16)): significantly increased
- AT III activity ([7]; patients with genetic homocysteinuria (ref 125)): increase
- bleeding time ([7]; patients, 100 mg twice daily for 15 days (ref 124)): significantly prolonged
- platelet aggregation induced with ADP or epinephrine ([7]; plasma from patients, 100 mg twice daily for 15 days (ref 124)): significantly inhibited

Compound: BzATP
- induction of cell apoptosis (HEK 293 P2X7 cells): induce
- induction of cell apoptosis (wild type HEK 293 cells): do not induce
